Tests used:
Mus musculus = assay: Ex vivo inhibition of human CETP overexpressed in po dosed double transgenic mouse harboring human apoA1 assessed as elevation of HDL-cholesterol level measured at 8 hrs post dose; format: functional
[1] = target: T1, Cholesteryl ester transfer protein (Homo sapiens, UniProt P11597); assay: Inhibition of CETP-mediated [3H]-CE from HDL to LDL in human plasma
T1 sequence (P11597 whole entry): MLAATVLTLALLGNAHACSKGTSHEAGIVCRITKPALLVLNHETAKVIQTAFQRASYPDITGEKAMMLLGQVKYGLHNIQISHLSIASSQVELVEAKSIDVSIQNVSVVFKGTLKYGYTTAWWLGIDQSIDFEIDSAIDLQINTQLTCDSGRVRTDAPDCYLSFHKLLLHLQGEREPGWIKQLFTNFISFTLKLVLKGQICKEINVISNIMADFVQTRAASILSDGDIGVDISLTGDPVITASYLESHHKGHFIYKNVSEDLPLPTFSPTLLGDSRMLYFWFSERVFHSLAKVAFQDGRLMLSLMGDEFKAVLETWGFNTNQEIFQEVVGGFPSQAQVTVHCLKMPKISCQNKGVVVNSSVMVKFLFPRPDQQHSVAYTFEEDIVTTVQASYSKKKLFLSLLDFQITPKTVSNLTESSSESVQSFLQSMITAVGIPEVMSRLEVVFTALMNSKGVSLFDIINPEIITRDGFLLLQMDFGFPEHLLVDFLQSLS

SMILES | ED50 (Mus musculus) [mg/kg] | IC50 [1] [nM]
Cc1cc(C)c2c(c1)[C@@H](N(Cc1cc(C(F)(F)F)cc(C(F)(F)F)c1)c1nnn(C)n1)CCCN2C[C@H]1CC[C@H](C(=O)O)CC1 [EVACETRAPIB] | < 5 | 
NCC(O)C(F)(F)F (configuration not stated) |  | 600

From ChEMBL document CHEMBL3351791, “Some molecular targets for antihyperlipidemic drug research” (Eur J Med Chem, 2014)
